Measured values reported in patent publication US8921595B2, “Protein Arginine Deiminase inhibitors as novel therapeutics for rheumatoid arthritis and cancer” (University of South Carolina, priority 2009, dated 2014).

Key:
[1] = test system: HL-60 cells; assay: Cytotoxicity / cell viability (CellTiter 96); type: cell-based, human; conditions: 24 h
Text: To further evaluate the […] effects of these compounds, their ability to inhibit the growth of HL60 cells, a leukemic cell line, was characterized. […] Such finding prompted further investigation into this phenomenon and led to the discovery that for the HL-60 cell line, the cells that remained viable were actually being differentiated into non-cancerous granulocytes. Evidence of this differentiation includes the increased expression of PAD4 (FIG. 6).
HL-60 human promyelocytic leukemia cells were obtained from the ATCC (Manassas, Va.). The cells were cultured in RPMI 1640 media supplemented with 10% FBS and 1% Pencillin-Streptomycin, in a 5% CO2 incubator at 37° C. MCF-7 cells were cultured in DMEM media supplemented with 10% FBS and 1% Penicillin-Streptomycin, in a 5% CO2 incubator at 37° C.
HL-60 and MCF-7 cells were grown to confluence (1×10^6 cells/mL) in the appropriate media. […] Cell viability was determined using the CellTiter 96 Non-radioactive Cell Proliferation Assay (Promega). Cell viability was quantified as the percentage of control absorbance. […] When possible, EC50 values were determined by fitting the dose response data to equation 2 using GraFit (version 5.0.11)^33, Fractional Activity=1/(1+([1]/EC50) (eq 2) where [I] is the concentration of inhibitor (e.g., doxorubicin) and EC50 is the concentration of inhibitor that yields half-maximal cell survival. Western Blotting.

[2] = test system: HL-60 cells; assay: Combination with doxorubicin, HL-60 cell viability; type: cell-based, human; conditions: for effects of doxorubicin in combination: HL-60 cells, combination with doxorubicin; for viability of cancer cells in combination with doxorubicin: in conjunction with doxorubicin
Method: Although o-F- and o-Cl-amidine show some efficacy for killing cancer derived cells, the overall effects are modest. In light of such results, these inhibitors were tested in a combination with doxorubicin, a known chemotherapeutic that is used for the treatment of numerous cancers, often as part of a combination therapy. In accordance with the present disclosure, the additive effects of doxorubicin was tested with varying concentrations of both o-F- and o-Cl-amidine on HL-60 cell viability.
HL-60 and MCF-7 cells were grown to confluence (1×10^6 cells/mL) in the appropriate media. 50 μL of the MCF-7 cells were plated into each well of a 96 well plate with 40 μL of DMEM. Cells were allowed to adhere to the plate for 15 h at 37° C. and 5% CO2. For the HL-60 cells, 90 μL of the cells were added to each well of a 96 well plate. o-F-amidine, o-Cl-amidine, doxorubicin, or ATRA (10 μL, 100 nM to 100 μM) were added to the plates and allowed to incubate with the cells for 24 h. Cell viability was determined using the CellTiter 96 Non-radioactive Cell Proliferation Assay (Promega). Cell viability was quantified as the percentage of control absorbance. Each condition was performed in triplicate. The use of 1% triton served as a 100% killing control. When possible, EC50 values were determined by fitting the dose response data to equation 2 using GraFit (version 5.0.11)^33, Fractional Activity=1/(1+([1]/EC50) (eq 2) where [I] is the concentration of inhibitor (e.g., doxorubicin) and EC50 is the concentration of inhibitor that yields half-maximal cell survival. Western Blotting.

Structure (SMILES)	cell viability in HL-60 cells [1]	effects of doxorubicin in combination [2]	viability of cancer cells in combination with doxorubicin [2]
N=C(CF)NCCC[C@H](NC(=O)c1ccccc1C(=O)O)C(N)=O [o-F-amidine, N-α-(2-carboxyl)benzoyl-N^5-(2-fluoro-1-iminoethyl)-L-ornithine amide]	reduce cell viability	potentiated	reduced to levels that are undetectable above the background signal
N=C(CCl)NCCC[C@H](NC(=O)c1ccccc1C(=O)O)C(N)=O [o-Cl-amidine, N-α-(2-carboxyl)benzoyl-N^5-(2-chloro-1-iminoethyl)-L-ornithine amide]	reduce cell viability	potentiated	reduced to levels that are undetectable above the background signal
